In US8889699B2, “5-fluorouracil derivative” (Delta-Fly Pharma, Inc., priority 2009, dated 2014):
Where two headings read alike, the source gives them in different places.

Molecular target: T1, OPRT (Homo sapiens, UniProt P11172)
T1 construct: the obtained supernatant was used as a DPD enzyme solution or an OPRT enzyme solution; from tissue; 105,000 g supernatant of homogenate
T1 sequence (P11172 1-480): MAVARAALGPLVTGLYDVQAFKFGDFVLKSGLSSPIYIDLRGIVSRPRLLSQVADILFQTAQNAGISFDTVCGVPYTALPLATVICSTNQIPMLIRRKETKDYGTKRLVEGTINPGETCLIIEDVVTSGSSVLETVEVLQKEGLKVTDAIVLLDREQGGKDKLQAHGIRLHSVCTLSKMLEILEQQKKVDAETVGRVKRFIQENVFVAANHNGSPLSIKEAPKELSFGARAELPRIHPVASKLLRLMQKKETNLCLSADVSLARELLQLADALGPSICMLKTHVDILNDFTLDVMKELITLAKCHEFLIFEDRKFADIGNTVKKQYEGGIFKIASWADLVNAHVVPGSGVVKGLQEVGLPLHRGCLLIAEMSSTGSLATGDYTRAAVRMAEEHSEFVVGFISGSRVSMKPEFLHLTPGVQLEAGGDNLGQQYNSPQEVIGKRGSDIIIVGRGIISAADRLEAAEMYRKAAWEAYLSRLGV
Experiment: OPRT inhibitory action in vitro (enzyme reaction, tritium-labeled 5-FU as substrate)
Assay type: biochemical
Protocol: The resulting product was diluted to concentrations of 1 mM, 100 μM, 10 μM, and 1 μM with a 10 mM potassium phosphate buffer solution (pH 6.0), thereby obtaining Test Liquids 1. The obtained Test Liquids 1 were separately added to the enzyme reaction solution described below to give final concentrations of 200 μM, 20 μM, 2 μM, and 0.2 μM. • (b) Test liquid preparation (2): As a DPD inhibitor, 5-chloro-2,4-dihydroxypyridine (CDHP; gimeracil) was dissolved to a concentration of 10 mM in a 10 mM potassium phosphate buffer solution (pH 6.0). The resulting product was diluted to concentrations of 1 mM, 100 μM, 10 μM, and 1 μM, thereby obtaining Test Liquids 2. The obtained Test Liquids 2 were separately added to the enzyme reaction solution to give final concentrations of 200 μM, 20 μM, 2 μM, and 0.2 μM. • (c) Test liquid preparation (3): As an OPRT inhibitor, citrazinic acid (Citra. A.) was dissolved to a concentration of 10 mM in 20 mM trishydroxyaminomethane-hydrochloric buffer solution (pH 8.0). Thereafter, the resulting product was diluted to concentrations of 1 mM, 100 μM, and 10 μM with a 10 mM potassium phosphate buffer solution, thereby obtaining Test Liquids (3). The obtained Test Liquids 3 were separately added to the enzyme reaction solution to give final concentrations of 200 μM, 20 μM, and 2 μM. • (d) Preparation of enzyme solution: The liver of an 8-week old SD rat was used as a DPD enzyme source, while human tumor cells that had been transplanted into a nude mouse and proliferated therein were used as an OPRT enzyme source. Specifically, immediately after a rat liver or successively-transplanted human tumor cells were extracted, a 50-mM tris-hydrochloric acid buffer solution (pH 8.0) containing 0.25 M saccharose, 5 mM magnesium chloride, and 1 mM dithreitol was added thereto to a concentration of 25% (w/v) and homogenized. Thereafter, ultracentrifugation was performed at 105,000 g for 60 minutes, and the obtained supernatant was used as a DPD enzyme solution or an OPRT enzyme solution. • (e) Enzyme reaction: A DPD enzyme reaction was carried out in accordance with the method of Tatsumi et al. (Gann, 78: 748-755 (1987)) using 5-FU labeled with tritium as a substrate. An OPRT enzyme reaction was carried out in accordance with the method of Shirasaka et al. (Cancer Res., 53: 4004-4009 (1993)) using 5-FU labeled with tritium as a substrate. Then, the activity of a control group (with no test compound) and test compound groups was measured. The percent inhibition of the test compound relative to DPD or OPRT was calculated using the following formula: [1-(the enzyme activity with the test compound/the enzyme activity of the control group)]×100(%).
The resulting product was diluted to concentrations of 1 mM, 100 μM, 10 μM, and 1 μM with a 10 mM potassium phosphate buffer solution (pH 6.0), thereby obtaining Test Liquids 1. The obtained Test Liquids 1 were separately added to the enzyme reaction solution described below to give final concentrations of 200 μM, 20 μM, 2 μM, and 0.2 μM. • (b) Preparation of enzyme solution: The liver of an 8-week old SD rat was used as a DPD enzyme source, while human tumor cells that had been transplanted into a nude mouse and proliferated therein were used as an OPRT enzyme source. Specifically, immediately after a rat liver or successively-transplanted human tumor cells were extracted, a 50-mM tris-hydrochloric acid buffer solution (pH 8.0) containing 0.25 M saccharose, 5 mM magnesium chloride, and 1 mM dithreitol was added thereto to a concentration of 25% (w/v) and homogenized. Thereafter, ultracentrifugation was performed at 105,000 g for 60 minutes, and the obtained supernatant was used as a DPD enzyme solution or an OPRT enzyme solution. • (c) Enzyme reaction: A DPD enzyme reaction was carried out in accordance with the method of Tatsumi et al. (Gann, 78: 748-755 (1987)) using 5-FU labeled with tritium as a substrate. […]

[1] = Conc. 0.2 μM, Table 1, read-out: OPRT Inhibitory Activity: Inhibition
[2] = Conc. 2 μM, Table 1, read-out: OPRT Inhibitory Activity: Inhibition
[3] = 0.2 μM, Table 2, read-out: OPRT Inhibition (%)
[4] = 2 μM, Table 2, read-out: OPRT Inhibition (%)

| SMILES | OPRT Inhibitory Activity: Activity (Conc. 0.2 μM, Table 1) [nmol/mL/min] | inhibition at 0.2 µM [1] [%] | OPRT Inhibitory Activity: Activity (Conc. 2 μM, Table 1) [nmol/mL/min] | inhibition at 2 µM [2] [%] | OPRT Inhibitory Activity: Activity (Conc. 20 μM, Table 1) [nmol/mL/min] | inhibition at 20 µM (Conc. 20 μM, Table 1) [%] | OPRT Inhibitory Activity: Activity (Conc. 200 μM, Table 1) [nmol/mL/min] | inhibition at 200 µM (Conc. 200 μM, Table 1) [%] | inhibition at 0.2 µM [3] [%] | inhibition at 2 µM [4] [%] | also measured |
| --- | --- | --- | --- | --- | --- | --- | --- | --- | --- | --- | --- |
| CCOCn1cc(F)c(=O)n(C(=O)c2cccc(C(=O)Oc3cc(OC(=O)c4cc(O)nc(O)c4)c(Cl)cn3)c2)c1=O [Compound I-2, 3-{3-[4-(2,6-dihydroxyisonicotinoyloxy)-5-chloro-2-pyridyloxycarbonyl]benzoyl}-1-ethoxymethyl-5-fluorouracil] | 0.375 | 0 | 0.280 | 25.5 | 0.168 | 55.3 | 0.069 | 81.6 |  |  |  |
| CCOCn1cc(F)c(=O)n(C(=O)c2cccc(C(=O)Oc3cc(OC(=O)c4cc(OC(C)=O)nc(OC(C)=O)c4)c(Cl)cn3)c2)c1=O [Compound I-10, 3-{3-[4-(2,6-diacetyloxyisonicotinoyloxy)-5-chloro-2-pyridyloxycarbonyl]benzoyl}-1-ethoxymethyl-5-fluorouracil] |  |  |  |  |  |  |  |  | 27.8 | 76.4 |  |
| CCOCn1cc(F)c(=O)n(C(=O)c2cccc(C(=O)Oc3cc(OC(=O)c4cc(OC(=O)CC)nc(OC(=O)CC)c4)c(Cl)cn3)c2)c1=O [Compound I-11, 3-{3-[4-(2,6-dipropionyloxyisonicotinoyloxy)-5-chloro-2-pyridyloxycarbonyl]benzoyl}-1-ethoxymethyl-5-fluorouracil] |  |  |  |  |  |  |  |  |  |  | IC50 (5-FU as substrate, Test Example 4, read-out: IC50 of OPRT activity inhibition): ~15 µM; OPRT Inhibitory Activity: Activity (Conc. 0.2 μM, Table 5): 0.101 nmol/mL/min; inhibition at 0.2 µM (Conc. 0.2 μM, Table 5, read-out: OPRT Inhibitory Activity: Inhibition): 42.6%; OPRT Inhibitory Activity: Activity (Conc. 2 μM, Table 5): 0.098 nmol/mL/min; inhibition at 2 µM (Conc. 2 μM, Table 5, read-out: OPRT Inhibitory Activity: Inhibition): 73.4%; OPRT Inhibitory Activity: Activity (Conc. 20 μM, Table 5): 0.046 nmol/mL/min; inhibition at 20 µM (Conc. 20 μM, Table 5): 87.5% |
| O=C(O)c1cc(O)nc(O)c1 [Citra. A., citrazinic acid, reference compound] | 0.379 | 0 | 0.301 | 20 | 0.173 | 54 | 0.075 | 80 | 31.9 | 75.1 |  |
| CCOCn1cc(F)c(=O)n(C(=O)c2cccc(C(=O)Oc3cc(OC(=O)c4cc(OC(=O)C5CCCC5)nc(OC(=O)C5CCCC5)c4)c(Cl)cn3)c2)c1=O [Compound I-9, 3-{3-[4-(2,6-dicyclopentanecarbonyloxyisonicotinoyloxy)-5-chloro-2-pyridyloxycarbonyl]benzoyl}-1-ethoxymethyl-5-fluorouracil] |  |  |  |  |  |  |  |  | 41.2 | 75.9 |  |
